Like-named read-outs stand apart in the source and are kept apart here.
Assays:
Assay in all cases: biochemical
Parameters in all cases: 33PanQinase radiometric kinase activity assay, residual activity in % of control, contract lab Reaction Biology
Settings in all cases: mean of intraexperimental duplicates, n = 1
[1] = biological target: AKT1 (Homo sapiens, UniProt P31749)
Procedure: (§1) Kinase Screening was performed at Reaction Biology (Freiburg, Germany) by using the ^33PanQinase Assay.^[ [90] ^] Based on this knowledge, we commissioned a kinase screening by the firm Reaction Biology, targeting those kinases whose inhibition has shown an indirect effect on microtubules. In our selection, we included additional kinases that are known to be involved in centrosome amplification (PLK4^[ [82] ^]), centrosome clustering (CDK1/2,^[ [83] ^] PLK1^[ [84] ^]), spindle multipolarity (SRC^[ [85] ^]), microtubule dynamics (AKT1^[ [86] ^]), and LIMK1/2 activation (ROCK1^[ [87] ^]) or are crucial for the mitosis (BUB1B, NEK2/9, WEE1^[ [88] ^]). Nonetheless, 1(R) and 1(S) at 10 µM had almost no inhibitory effects on any of the chosen kinases (Table 4 ). Only Aurora A (mean residual activity for 1(R): 86%, 1(S): 98%) and ASK1 (mean residual activity for 1(R): 90%, 1(S): 117%) were slightly enantioselectively impacted. However, we theorize that those marginal inhibitions are not explanatory for the antiproliferative and morphological effects of 1(R) on cancer cells.

[2] = biological target: T1, AuroraC (Homo sapiens, UniProt Q9UQB9)
T1 construct: gene AURKC
T1 sequence (Q9UQB9 1-309): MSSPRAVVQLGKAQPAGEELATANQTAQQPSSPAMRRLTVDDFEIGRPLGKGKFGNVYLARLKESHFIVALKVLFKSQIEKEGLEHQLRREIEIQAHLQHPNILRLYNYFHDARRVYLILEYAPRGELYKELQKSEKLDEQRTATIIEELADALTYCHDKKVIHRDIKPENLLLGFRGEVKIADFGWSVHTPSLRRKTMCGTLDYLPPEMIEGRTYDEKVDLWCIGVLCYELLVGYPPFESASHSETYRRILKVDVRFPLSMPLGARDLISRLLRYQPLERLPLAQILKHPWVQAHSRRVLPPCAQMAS
Procedure: as §1

[3] = biological target: BUB1B (Homo sapiens, UniProt O60566)
Procedure: as §1

[4] = biological target: CDK1/CycB1 (Homo sapiens, UniProt P06493)
Procedure: as §1

[5] = biological target: T2, CHK1 (Homo sapiens, UniProt O14757)
T2 construct: gene CHEK1
T2 sequence (O14757 1-476): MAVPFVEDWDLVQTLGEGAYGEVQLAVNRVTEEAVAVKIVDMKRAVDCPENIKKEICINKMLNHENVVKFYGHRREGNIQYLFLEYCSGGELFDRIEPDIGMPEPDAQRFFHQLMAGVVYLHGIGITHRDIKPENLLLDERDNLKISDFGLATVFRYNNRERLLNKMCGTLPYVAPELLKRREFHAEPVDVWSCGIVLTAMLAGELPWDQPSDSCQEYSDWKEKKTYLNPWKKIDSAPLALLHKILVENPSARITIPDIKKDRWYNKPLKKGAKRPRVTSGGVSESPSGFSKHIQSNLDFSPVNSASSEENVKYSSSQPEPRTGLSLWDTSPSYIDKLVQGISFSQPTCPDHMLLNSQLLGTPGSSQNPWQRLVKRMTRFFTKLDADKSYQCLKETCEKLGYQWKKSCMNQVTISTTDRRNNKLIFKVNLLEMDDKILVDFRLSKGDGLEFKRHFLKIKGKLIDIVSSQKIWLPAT
Procedure: as §1

[6] = biological target: T3, CHK2 (Homo sapiens, UniProt O96017)
T3 construct: gene CHEK2
Procedure: as §1

[7] = biological target: LIMK2 (Homo sapiens, UniProt P53671)
Procedure: as §1

[8] = biological target: T4, NEK2 (Homo sapiens, UniProt P51955)
T4 sequence (P51955 1-445): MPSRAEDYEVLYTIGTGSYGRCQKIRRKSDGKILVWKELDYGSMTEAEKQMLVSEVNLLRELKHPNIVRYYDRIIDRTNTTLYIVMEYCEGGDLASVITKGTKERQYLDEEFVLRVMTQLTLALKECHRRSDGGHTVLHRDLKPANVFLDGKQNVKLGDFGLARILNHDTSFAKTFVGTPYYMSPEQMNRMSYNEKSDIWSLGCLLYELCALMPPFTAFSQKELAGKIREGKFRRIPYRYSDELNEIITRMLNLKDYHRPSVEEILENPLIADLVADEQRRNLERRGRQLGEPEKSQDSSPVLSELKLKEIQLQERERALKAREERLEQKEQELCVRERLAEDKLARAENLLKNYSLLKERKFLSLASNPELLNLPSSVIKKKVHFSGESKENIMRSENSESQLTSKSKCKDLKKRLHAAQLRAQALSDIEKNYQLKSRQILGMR
Procedure: as §1

[9] = biological target: ROCK1 (Homo sapiens, UniProt Q13464)
Procedure: as §1

[10] = biological target: SRC (Homo sapiens, UniProt P12931)
Procedure: as §1

[11] = biological target: WEE1 (Homo sapiens, UniProt P30291)
Procedure: as §1

[12] = read-out: Residual activities [% of control] / 1(S) 10 µM
[13] = read-out: Residual activities [% of control] / 1(R) 10 µM

ROCK1, sequence (Q13464 whole entry): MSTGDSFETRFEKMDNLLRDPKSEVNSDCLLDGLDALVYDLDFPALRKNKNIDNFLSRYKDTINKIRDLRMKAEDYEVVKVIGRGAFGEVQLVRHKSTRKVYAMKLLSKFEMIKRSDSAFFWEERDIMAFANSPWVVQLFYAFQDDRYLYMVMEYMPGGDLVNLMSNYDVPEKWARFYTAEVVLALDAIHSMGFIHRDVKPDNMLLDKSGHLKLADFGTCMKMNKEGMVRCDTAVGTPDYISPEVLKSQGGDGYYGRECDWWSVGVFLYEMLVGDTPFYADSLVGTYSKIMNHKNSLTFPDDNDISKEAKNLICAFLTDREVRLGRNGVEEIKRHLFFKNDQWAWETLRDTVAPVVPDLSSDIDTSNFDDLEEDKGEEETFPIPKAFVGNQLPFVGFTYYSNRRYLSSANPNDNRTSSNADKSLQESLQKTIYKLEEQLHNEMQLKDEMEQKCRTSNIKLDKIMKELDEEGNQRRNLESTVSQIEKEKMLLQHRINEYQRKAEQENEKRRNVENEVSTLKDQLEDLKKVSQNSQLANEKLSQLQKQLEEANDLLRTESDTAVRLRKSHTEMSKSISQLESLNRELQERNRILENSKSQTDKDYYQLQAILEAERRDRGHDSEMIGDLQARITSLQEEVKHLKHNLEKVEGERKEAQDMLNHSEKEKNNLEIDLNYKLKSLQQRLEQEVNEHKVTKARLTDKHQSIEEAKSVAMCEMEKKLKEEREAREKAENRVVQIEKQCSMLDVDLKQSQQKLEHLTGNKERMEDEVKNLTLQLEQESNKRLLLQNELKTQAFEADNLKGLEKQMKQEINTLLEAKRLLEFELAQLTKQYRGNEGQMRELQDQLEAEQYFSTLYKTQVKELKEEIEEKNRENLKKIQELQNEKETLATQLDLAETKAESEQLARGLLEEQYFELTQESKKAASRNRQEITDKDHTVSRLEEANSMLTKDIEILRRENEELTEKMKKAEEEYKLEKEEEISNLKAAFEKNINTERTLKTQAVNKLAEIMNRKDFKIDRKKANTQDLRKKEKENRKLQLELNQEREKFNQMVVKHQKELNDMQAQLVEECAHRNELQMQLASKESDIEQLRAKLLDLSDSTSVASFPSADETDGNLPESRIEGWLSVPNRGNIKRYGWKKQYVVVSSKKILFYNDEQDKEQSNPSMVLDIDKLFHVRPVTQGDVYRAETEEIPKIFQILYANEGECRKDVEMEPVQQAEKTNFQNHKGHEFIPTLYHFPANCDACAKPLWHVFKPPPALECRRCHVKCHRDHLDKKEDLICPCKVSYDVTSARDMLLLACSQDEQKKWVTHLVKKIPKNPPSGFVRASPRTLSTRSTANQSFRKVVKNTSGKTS
AKT1, sequence (P31749 whole entry): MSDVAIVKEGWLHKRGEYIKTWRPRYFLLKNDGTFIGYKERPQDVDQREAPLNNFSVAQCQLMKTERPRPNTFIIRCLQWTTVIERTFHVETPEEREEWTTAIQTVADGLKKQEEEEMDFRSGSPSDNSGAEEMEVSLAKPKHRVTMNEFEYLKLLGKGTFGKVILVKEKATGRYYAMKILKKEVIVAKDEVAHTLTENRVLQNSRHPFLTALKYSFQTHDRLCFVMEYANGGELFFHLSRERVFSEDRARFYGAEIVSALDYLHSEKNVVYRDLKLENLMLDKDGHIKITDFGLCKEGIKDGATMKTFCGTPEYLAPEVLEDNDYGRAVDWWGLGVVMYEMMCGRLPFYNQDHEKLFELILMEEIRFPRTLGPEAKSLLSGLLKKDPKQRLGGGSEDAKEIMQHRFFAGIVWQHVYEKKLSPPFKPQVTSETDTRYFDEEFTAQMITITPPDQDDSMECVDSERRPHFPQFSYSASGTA
SRC, sequence (P12931 whole entry): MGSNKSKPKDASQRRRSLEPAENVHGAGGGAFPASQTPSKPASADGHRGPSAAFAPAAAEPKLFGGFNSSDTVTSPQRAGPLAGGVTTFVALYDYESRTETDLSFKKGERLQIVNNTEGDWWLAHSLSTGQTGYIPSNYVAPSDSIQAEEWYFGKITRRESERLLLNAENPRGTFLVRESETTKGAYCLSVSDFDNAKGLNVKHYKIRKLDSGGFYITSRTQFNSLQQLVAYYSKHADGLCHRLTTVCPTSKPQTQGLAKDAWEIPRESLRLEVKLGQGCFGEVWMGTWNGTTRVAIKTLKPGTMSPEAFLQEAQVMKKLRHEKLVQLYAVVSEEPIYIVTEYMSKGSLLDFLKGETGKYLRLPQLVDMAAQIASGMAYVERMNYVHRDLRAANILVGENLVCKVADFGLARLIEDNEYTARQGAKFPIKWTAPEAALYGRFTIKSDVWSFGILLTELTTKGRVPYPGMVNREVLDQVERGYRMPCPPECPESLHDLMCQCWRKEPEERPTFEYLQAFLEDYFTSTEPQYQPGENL
WEE1, sequence (P30291 whole entry): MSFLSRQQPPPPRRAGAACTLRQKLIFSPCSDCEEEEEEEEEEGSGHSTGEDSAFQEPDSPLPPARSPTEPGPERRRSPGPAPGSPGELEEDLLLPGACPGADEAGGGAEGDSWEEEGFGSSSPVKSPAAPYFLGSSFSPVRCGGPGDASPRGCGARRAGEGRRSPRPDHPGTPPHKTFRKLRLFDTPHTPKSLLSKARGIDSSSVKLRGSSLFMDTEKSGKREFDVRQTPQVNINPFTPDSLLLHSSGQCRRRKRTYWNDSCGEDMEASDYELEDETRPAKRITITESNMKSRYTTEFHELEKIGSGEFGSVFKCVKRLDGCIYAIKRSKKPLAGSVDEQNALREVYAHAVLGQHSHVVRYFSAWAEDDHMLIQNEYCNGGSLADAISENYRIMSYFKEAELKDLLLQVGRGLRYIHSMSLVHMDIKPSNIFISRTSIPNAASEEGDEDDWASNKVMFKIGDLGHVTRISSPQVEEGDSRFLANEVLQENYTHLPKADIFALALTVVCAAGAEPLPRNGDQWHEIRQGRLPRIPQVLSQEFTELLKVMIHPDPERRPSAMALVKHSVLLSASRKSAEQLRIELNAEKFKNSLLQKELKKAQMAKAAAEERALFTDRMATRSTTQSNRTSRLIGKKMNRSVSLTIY
BUB1B, sequence (O60566 whole entry): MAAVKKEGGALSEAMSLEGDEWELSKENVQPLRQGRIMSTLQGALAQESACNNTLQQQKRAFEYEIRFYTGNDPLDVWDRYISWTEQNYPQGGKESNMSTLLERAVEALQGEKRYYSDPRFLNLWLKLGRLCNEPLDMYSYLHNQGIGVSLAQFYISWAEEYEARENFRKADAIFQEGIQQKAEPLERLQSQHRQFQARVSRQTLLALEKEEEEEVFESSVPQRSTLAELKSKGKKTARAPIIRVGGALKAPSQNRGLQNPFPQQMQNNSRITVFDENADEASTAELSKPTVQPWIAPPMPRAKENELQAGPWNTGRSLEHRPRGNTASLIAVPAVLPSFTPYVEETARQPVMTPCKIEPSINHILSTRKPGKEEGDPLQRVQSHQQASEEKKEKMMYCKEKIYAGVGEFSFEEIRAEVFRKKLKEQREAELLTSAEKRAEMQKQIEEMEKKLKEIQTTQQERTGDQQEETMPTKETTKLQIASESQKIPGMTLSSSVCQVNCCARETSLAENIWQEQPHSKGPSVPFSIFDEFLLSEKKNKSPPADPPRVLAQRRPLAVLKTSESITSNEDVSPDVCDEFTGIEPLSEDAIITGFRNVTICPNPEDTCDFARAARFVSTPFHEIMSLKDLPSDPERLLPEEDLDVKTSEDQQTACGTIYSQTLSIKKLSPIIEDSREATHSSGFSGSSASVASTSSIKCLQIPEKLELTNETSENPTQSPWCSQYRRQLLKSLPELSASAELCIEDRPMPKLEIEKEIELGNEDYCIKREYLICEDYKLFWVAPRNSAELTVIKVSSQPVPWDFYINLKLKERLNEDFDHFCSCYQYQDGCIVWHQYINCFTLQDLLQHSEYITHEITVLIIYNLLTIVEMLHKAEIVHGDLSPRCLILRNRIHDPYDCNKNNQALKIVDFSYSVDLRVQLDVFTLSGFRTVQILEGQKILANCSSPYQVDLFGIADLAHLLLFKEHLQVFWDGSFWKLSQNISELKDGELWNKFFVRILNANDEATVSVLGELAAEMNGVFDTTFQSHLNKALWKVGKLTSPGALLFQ
CDK1/CycB1, sequence (P06493 whole entry): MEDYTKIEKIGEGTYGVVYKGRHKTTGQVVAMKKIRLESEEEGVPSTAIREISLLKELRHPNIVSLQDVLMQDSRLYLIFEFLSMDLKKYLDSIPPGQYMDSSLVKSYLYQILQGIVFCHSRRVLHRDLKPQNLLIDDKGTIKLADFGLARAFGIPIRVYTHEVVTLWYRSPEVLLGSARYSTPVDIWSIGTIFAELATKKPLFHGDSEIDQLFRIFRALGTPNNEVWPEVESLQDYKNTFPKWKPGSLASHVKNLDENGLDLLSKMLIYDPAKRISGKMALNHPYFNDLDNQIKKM
CDK1/CycB1, sequence (P14635 whole entry partner): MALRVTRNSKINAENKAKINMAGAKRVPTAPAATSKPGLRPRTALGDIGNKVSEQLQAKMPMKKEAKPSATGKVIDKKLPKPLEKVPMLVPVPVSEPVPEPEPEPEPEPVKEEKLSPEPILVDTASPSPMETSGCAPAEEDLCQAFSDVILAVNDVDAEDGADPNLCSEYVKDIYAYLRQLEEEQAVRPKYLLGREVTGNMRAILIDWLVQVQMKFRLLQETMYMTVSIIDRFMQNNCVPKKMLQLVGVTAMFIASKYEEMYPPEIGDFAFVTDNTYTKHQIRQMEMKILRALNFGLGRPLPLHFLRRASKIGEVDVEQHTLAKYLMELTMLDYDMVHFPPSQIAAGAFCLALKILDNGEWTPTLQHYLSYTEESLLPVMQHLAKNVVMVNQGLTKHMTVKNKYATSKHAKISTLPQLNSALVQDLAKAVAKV

Nc1ccc2ccccc2c1-c1c(N)ccc2ccccc12 [1(S), S‐BINAM] showed a remaining activity at 10 µM [1, 12] of 101%, a remaining activity at 10 µM [2, 12] of 100% and a remaining activity at 10 µM [3, 12] of 111%. For the same compound, the remaining activity at 10 µM [4, 12] was 100%, the remaining activity at 10 µM [5, 12] was 95% and the remaining activity at 10 µM [6, 12] was 104%. The remaining activity at 10 µM [7, 12] was 98%, the remaining activity at 10 µM [8, 12] was 96% and the remaining activity at 10 µM [9, 12] was 97%. For the same compound, the remaining activity at 10 µM [10, 12] was 103% and the remaining activity at 10 µM [11, 12] was 98%.

Compound Nc1ccc2ccccc2c1-c1c(N)ccc2ccccc12 [1(R), (R)‐[1,1′‐binaphthalene]‐2,2′‐diamine] has a remaining activity at 10 µM [1, 13] of 99%, a remaining activity at 10 µM [2, 13] of 101% and a remaining activity at 10 µM [3, 13] of 118%. The remaining activity at 10 µM [4, 13] was 101%, the remaining activity at 10 µM [5, 13] was 94% and the remaining activity at 10 µM [6, 13] was 97%. For the same compound, the remaining activity at 10 µM [7, 13] was 106%, the remaining activity at 10 µM [8, 13] was 106% and the remaining activity at 10 µM [9, 13] was 100%. The remaining activity at 10 µM [10, 13] was 99% and the remaining activity at 10 µM [11, 13] was 99%.

Reference: publication PMC12503911, “Cytotoxicity of Atropisomeric [1,1′‐Binaphthalene]‐2,2′‐Diamines (BINAM) and Analogs in Human Cancer Cells: Enantioselectivity, Structure–Activity Relationships, and Mechanism” (Chemmedchem, 2025)
